According to patent US20250375450A1, “SMARCA2/4 INHIBITION AS A STRATEGY TO TREAT TUMORS THAT HARBOR ABERRANT BAF ASSEMBLIES” (BOARD OF REGENTS, THE UNIVERSITY OF TEXAS SYSTEM, priority 2022, published 2025):
Entries after “also recorded” stand apart in the source; their conditions may differ.

Legend:
BAF complex in RH4 cells = test: BAF complex assembly, size-exclusion chromatography of nuclear lysates and immunoblot; format: cell-based; details: 7.5 μM AT-301
Text: (§1) FIG. 12A-D show representative data illustrating that the assembly of BAF complex is perturbed by AT-301 inhibitor without perturbing oncogenic fusion protein levels. Referring to FIG. 12A and FIG. 12B, immunoblots of RH41 (FIG. 12A) and ES7 (FIG. 12B) cells after 4 and 12 hrs of treatment with AT-301 or DMSO. FOXO1 and FLI1 expression remains unchanged upon AT-301 treatment. Referring to FIG. 12C and FIG. 12D, gel filtration chromatography of ES3 (FIG. 12C) and RH41 (FIG. 12D) cell nuclear lysates after BAF-X-1 treatment are shown. Lysates were passed through a Sephacryl S-400 HR column and every fourth fraction was immuno-blotted for the proteins indicated with fraction numbers above the lanes.
(§2) Next, whether AT-301 can perturb the assembly of BAF complex was evaluated using size-exclusion chromatography (SEC) method. Cells were cultured on 15 cm petri-dishes. Nuclei were extracted and lysed. A HiPrep 16/60 Sephacryl S-400 HR column (GE) was equilibrated with a running buffer and 4 mg of the lysate was loaded on to the column. Fractions of 1 mL were eluted at an elution rate of 0.8 mL/min. Eluted proteins were analyzed by concentrating and immunoblotting every fourth fraction.

BAF complex in ES3 cells = test: as above; format: cell-based; details: 7.5 μM AT-301
Text: as §1, §2

RH41 cells = test: Cell cycle analysis, propidium iodide/RNase flow cytometry; format: cell-based; details: 7.5 μM AT-301, 24 hours
Protocol: Referring to FIG. 11A and FIG. 11B, RH4 (FIG. 11A) and ES3 (FIG. 11B) cells were treated with the indicated concentrations of BAF-X-1 or DMSO in triplicate and apoptosis was detected using the IncuCyte Caspase 3/7 green dye (Sartorius). Brightfield and green fluorescence images were captured every 2 hours from 4 fields per well on the IncuCyte live cell imager. The proportion of caspase positive (green) cells relative to % confluence of the well was calculated on the IncuCyte software and plotted against time. Referring to FIG. 11C and FIG. 11D, RH41 cells were treated with 7.5 μM AT-301 (FIG. 11D) or DMSO (FIG. 11C) for 24 hours, harvested with accutase, washed, and fixed in 70% ethanol. They were subsequently stained with propidium iodide/RNase and fluorescence was analyzed on BD flow cytometer. Resulting data was analyzed using FlowJo software.
To test the alterations in cell cycle upon AT-301 treatment, RH41 cells were cultured in 12 well plates, detached using Accutase (Corning, 25-058-Cl), washed with PBS, and fixed in 70% ethanol. For staining, the fixed cells were washed with PBS and stained with FxCycle PI/RNase staining solution (Invitrogen, F10797) as per the supplier's directions. Fluorescence intensity of stained cells was measured on (BD system) and analyzed using FlowJo.

Ewing Sarcoma cell lines = test: Growth of Ewing Sarcoma cell lines, live cell imaging (Incucyte S3) confluency; format: cell-based
Protocol: (§3) Briefly, human SMARCA2 was purified, and a high-throughput screen (HTS) of 40,000 compounds was conducted. […] In brief, cells were grown in RPMI media supplemented with 10% Fetal bovine serum (FBS), 1× penicillin, and streptomycin antibiotics. Cells were placed in an incubator with 5% C02 and 50% humidity. When cells reached 90% confluency, cells were harvested, washed twice in 1×PBS, counted using trypan blue exclusion method. Then cells were seeded in 96-well plates (duplicates, n=2) at the density of 20,000 cells per well. Allowed them to attach to the bottom of the well for 1 to 2 hrs and treated with different concentration of AT-301 compound starting at highest concentration of 10 micromolar to serial dilution of the compound to the lowest concentration of 0.039 micromolar. Cells treated with only DMSO were also included as negative control. Cells were monitored for 72 hrs. by live cell imaging method (Incucyte S3) taking images every two hours. The confluency was determined and plotted against time (hours) by using Prism software.

ovarian cancer cells = test: Growth/killing of ovarian cancer cells; format: cell-based; details: dose-dependent
Protocol: Proliferation of adherent cells was determined on the IncuCyte live-cell imaging system (Essen BioScience). Cells were seeded on clear bottom 96 well plates at a seeding density of 2000 cells/well. Cells were allowed to attach overnight after which the medium was replaced with fresh medium containing serial dilutions (2×) of the compound or DMSO control. Percent confluence was calculated by the IncuCyte software from four different images per well from at least three replicate wells. For non-adherent cells, the 96-well plates were coated with poly-L-lysine before seeding to facilitate cell adhesion. At the end of the assay, dose-dependent cell viability was determined by staining the cells with PrestoBlue (Invitrogen, A13261) as per manufacturer's instructions and IC50 was calculated (FIG. 10).
Referring to FIG. 10A, AT-301 kills a variety of cancer cells (brain tumors, rhabdomyosarcoma, nonsmall cell lung cancer, leukemia, and Ewing's Sarcoma. We also tested whether AT-301 can kill cells representing gynecological cancers (ovarian and endometrial cancer). As shown in FIG. 10B-C, AT-301 kills a variety of ovarian and endometrial cancer cells.

ES3 cells = test: Live imaging of ES3 cells; format: cell-based
Protocol: In vivo live imaging of ES3 cells in the presence of AT-301 (IC50˜5 μM).
as §3

SMARCA2 = biological target: T1, SMARCA2 (Homo sapiens, UniProt P51531); test: Secondary ATPase assay; format: biochemical
T1 construct: The SMARCA2-1 gene (amino acids 437-1493) encompassing all domains; made in house; host or cells: expiSF9 insect cells (baculovirus, pFASTBac1)
T1 sequence (P51531 437-1493): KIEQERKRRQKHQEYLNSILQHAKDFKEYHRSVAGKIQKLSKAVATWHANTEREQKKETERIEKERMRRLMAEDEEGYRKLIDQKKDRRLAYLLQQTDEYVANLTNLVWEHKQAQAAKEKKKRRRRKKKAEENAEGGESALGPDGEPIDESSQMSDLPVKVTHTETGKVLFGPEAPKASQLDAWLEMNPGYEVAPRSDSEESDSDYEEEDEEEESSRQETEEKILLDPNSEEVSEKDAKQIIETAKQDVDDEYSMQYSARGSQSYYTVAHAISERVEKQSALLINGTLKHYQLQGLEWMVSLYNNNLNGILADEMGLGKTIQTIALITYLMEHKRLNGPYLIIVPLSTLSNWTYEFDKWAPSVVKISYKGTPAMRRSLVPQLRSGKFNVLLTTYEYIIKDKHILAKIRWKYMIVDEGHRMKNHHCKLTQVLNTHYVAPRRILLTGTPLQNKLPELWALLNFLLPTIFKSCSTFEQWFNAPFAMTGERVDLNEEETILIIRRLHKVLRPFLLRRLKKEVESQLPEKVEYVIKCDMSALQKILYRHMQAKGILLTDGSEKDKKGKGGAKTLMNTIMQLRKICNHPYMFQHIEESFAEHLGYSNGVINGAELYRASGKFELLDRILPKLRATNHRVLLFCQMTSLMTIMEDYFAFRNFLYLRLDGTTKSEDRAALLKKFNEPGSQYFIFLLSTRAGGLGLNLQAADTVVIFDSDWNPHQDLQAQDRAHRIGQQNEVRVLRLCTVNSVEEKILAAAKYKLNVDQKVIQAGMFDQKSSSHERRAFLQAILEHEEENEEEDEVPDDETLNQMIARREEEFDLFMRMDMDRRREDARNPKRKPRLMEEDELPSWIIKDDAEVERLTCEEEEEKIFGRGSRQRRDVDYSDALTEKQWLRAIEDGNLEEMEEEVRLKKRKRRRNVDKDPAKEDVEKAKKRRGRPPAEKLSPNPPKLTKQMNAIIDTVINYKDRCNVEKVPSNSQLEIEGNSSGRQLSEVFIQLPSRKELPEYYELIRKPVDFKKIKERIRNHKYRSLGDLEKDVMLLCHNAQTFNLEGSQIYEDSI
Protocol: Exemplary compounds were evaluated for their ability to inhibit human SMARCA2 in ATPase assays as detailed in Table 2 below. Dose response curves for compound nos.

SMARCAL1 = SMARCAL1 (Homo sapiens, UniProt Q9NZC9); test: Activity of other SWI/SNF ATPases not part of the BAF complex; format: biochemical; details: SWI/SNF ATPase not part of the BAF complex
Sequence of SMARCAL1 (Q9NZC9 whole entry): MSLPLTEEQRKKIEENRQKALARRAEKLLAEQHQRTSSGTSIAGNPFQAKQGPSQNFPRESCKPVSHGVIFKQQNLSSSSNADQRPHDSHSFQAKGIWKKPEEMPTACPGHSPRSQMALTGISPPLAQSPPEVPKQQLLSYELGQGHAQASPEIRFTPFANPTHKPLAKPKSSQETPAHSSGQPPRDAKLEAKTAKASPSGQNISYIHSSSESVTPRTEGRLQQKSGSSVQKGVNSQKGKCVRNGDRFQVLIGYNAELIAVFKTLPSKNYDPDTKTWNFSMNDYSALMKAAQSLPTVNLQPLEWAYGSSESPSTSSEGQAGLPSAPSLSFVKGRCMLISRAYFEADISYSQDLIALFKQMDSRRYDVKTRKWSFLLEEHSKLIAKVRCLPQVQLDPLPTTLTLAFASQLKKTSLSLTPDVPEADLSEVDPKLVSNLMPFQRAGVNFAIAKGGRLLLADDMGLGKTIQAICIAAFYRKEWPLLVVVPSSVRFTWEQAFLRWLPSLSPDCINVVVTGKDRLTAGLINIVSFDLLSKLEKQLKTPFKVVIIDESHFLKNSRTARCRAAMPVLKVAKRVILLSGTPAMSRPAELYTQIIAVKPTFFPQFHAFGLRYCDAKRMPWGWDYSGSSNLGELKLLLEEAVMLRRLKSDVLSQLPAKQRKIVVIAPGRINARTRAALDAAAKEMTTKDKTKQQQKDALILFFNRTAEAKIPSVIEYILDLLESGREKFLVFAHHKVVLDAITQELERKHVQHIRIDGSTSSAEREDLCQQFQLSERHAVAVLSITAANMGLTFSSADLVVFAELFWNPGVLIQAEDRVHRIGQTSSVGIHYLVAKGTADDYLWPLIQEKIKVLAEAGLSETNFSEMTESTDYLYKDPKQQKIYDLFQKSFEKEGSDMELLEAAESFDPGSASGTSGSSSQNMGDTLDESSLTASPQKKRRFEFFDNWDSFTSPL

[1] = tested on: alveolar Rhabdomyosarcoma cell lines; test: Growth of Rhabdomyosarcoma cell lines, live cell imaging confluency; format: cell-based
Protocol: as §3
Assays were performed as detailed above for FIG. 4A-E.

SMILES: Clc1ccc(CNc2nc(NC3CCCC3)nc3ccccc23)cc1Cl [AT-301, N^2-cyclopentyl-N^4-(3,4-dichlorobenzyl)quinazoline-2,4-diamine]
- Assembly of BAF complexes (BAF complex in RH4 cells): perturbed assembly
- Assembly of BAF complexes (BAF complex in ES3 cells): perturbed assembly
- Cell cycle alteration (RH41 cells): arrested in GO-Gi phase
- IC50 (Ewing Sarcoma cell lines; 8 different Ewing Sarcoma cell lines, 72 hrs live cell imaging): ~5 µM
- Growth of Ewing Sarcoma cell lines (Ewing Sarcoma cell lines; live cell imaging, confluency): attenuate the growth; also recorded: strongly attenuated the growth
- Growth/killing of ovarian cancer cells (ovarian cancer cells): kills; also recorded: inhibits the growth
- IC50 (ES3 cells): ~5 µM
- IC50 (SMARCA2): ~5 µM
- Inhibition of activity of SMARCAL1 (SMARCAL1): fails to inhibit
- Growth of Rhabdomyosarcoma cell lines ([1]; 2 other lines): moderately attenuated the growth
- Growth of alveolar Rhabdomyosarcoma cell lines ([1]; 4 alveolar Rhabdomyosarcoma cell lines): attenuate the growth; also recorded: strongly attenuated the growth
